These results are taken from ChEMBL document CHEMBL5210121, “Affinity On-target Cellular Literature for EUbOPEN Chemogenomics Library wave 3” (2023).

Assay [1] addresses Cystic fibrosis transmembrane conductance regulator (Homo sapiens, UniProt P13569, F508DEL). The experiment in a line: Affinity On-target Cellular interaction (CFTR Restoration Trans-Epithelial Current Clamp (TECC) assay (in HBE cells from F508del CF patients)) EUB0000264b CFTR. It counts as cell-based. Details: mode of action Negative control for A-1596586, recommended concentration 1 uM.

Assay [2] is described as follows: Affinity On-target Cellular interaction (Binding assay in HEK293 cells) EUB0000337aCl P2RY14.
In assay [3] the target is Dual specificity protein kinase CLK1 (Homo sapiens, UniProt P49759). The experiment in a line: Affinity On-target Cellular interaction (NanoBRET assay (HEK293T cells)) EUB0000705a CLK1.
Assay [4] has as its target Dual specificity protein kinase CLK2 (Homo sapiens, UniProt P49760). The experiment in a line: Affinity On-target Cellular interaction (NanoBRET assay (HEK293T cells)) EUB0000705a CLK2.
For assay [5], the target named is Dual specificity protein kinase CLK4 (Homo sapiens, UniProt Q9HAZ1). The experiment in a line: Affinity On-target Cellular interaction (NanoBRET assay (HEK293T cells)) EUB0000705a CLK4.
Chain of Dual specificity protein kinase CLK4 (Q9HAZ1 whole entry): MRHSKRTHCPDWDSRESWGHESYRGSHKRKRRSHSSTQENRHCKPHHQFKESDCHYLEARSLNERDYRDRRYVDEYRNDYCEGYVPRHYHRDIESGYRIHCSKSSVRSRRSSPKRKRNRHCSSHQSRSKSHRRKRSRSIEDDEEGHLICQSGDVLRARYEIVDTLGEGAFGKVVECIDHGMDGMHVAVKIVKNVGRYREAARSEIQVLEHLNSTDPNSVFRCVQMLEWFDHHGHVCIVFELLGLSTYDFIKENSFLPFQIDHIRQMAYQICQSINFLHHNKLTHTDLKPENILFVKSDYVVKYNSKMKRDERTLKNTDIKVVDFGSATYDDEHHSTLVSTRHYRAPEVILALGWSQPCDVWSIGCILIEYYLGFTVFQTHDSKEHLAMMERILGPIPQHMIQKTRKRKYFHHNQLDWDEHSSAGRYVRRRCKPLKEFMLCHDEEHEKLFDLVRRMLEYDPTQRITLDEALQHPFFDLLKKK
The target in assay [6] is Histone-lysine N-methyltransferase SETD7 (Homo sapiens, UniProt Q8WTS6). The experiment in a line: Affinity On-target Cellular interaction (Immunoblot (increase in nuclear YAP levels by treatment of MEFs (from Setd7+/+ mice) with 10 µM PFI-2)) EUB0000196bCl SETD7. Details: mode of action Inhibitor, recommended concentration 1 uM.
The target of assay [7] is Proteinase-activated receptor 1 (Homo sapiens, UniProt P25116). The experiment in a line: Affinity On-target Cellular interaction (Functional cellular assay in HEK cells expressing F2R) EUB0000333a F2R. Format: cell-based. Details: mode of action Negative control for BAY-386, recommended concentration 100 nM.
Chain of Proteinase-activated receptor 1 (P25116 whole entry): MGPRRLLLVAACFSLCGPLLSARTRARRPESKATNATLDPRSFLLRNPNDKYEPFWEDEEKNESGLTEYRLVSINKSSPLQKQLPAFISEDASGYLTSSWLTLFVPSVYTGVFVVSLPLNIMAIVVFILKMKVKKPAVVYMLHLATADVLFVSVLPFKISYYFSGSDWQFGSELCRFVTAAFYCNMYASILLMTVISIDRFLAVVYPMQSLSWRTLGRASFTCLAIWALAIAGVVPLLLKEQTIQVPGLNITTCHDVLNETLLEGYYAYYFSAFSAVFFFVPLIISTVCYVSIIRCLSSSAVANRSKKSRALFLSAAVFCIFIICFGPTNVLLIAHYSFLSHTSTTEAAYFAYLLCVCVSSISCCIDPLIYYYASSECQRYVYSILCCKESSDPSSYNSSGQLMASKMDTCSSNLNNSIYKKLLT
The target of assay [8] is Endothelin receptor type B (Homo sapiens, UniProt P24530). The experiment in a line: Affinity On-target Cellular interaction (Cellular functional assay (antagonist effect, Eurofins)) EUB0000339a EDNRB. Details: mode of action Negative control for A-192621, recommended concentration 100 nM.
The target in assay [9] is Histone-lysine N-methyltransferase, H3 lysine-79 specific (Homo sapiens, UniProt Q8TEK3). The experiment in a line: Affinity On-target Cellular interaction (Western Blot (reduction of H3K79 dimethylation in A431 cells by DOT1L)) EUB0000216b DOT1L. It counts as cell-based. Details: mode of action Inhibitor, recommended concentration 1 uM.
The target of assay [10] is T1, Leucine-rich repeat serine/threonine-protein kinase 2 (Homo sapiens, UniProt Q5S007). The experiment in a line: Affinity On-target Cellular interaction (NanoBRET assay (HEK293T cells)) EUB0000706a LRRK2.
T1 sequence (Q5S007 whole entry): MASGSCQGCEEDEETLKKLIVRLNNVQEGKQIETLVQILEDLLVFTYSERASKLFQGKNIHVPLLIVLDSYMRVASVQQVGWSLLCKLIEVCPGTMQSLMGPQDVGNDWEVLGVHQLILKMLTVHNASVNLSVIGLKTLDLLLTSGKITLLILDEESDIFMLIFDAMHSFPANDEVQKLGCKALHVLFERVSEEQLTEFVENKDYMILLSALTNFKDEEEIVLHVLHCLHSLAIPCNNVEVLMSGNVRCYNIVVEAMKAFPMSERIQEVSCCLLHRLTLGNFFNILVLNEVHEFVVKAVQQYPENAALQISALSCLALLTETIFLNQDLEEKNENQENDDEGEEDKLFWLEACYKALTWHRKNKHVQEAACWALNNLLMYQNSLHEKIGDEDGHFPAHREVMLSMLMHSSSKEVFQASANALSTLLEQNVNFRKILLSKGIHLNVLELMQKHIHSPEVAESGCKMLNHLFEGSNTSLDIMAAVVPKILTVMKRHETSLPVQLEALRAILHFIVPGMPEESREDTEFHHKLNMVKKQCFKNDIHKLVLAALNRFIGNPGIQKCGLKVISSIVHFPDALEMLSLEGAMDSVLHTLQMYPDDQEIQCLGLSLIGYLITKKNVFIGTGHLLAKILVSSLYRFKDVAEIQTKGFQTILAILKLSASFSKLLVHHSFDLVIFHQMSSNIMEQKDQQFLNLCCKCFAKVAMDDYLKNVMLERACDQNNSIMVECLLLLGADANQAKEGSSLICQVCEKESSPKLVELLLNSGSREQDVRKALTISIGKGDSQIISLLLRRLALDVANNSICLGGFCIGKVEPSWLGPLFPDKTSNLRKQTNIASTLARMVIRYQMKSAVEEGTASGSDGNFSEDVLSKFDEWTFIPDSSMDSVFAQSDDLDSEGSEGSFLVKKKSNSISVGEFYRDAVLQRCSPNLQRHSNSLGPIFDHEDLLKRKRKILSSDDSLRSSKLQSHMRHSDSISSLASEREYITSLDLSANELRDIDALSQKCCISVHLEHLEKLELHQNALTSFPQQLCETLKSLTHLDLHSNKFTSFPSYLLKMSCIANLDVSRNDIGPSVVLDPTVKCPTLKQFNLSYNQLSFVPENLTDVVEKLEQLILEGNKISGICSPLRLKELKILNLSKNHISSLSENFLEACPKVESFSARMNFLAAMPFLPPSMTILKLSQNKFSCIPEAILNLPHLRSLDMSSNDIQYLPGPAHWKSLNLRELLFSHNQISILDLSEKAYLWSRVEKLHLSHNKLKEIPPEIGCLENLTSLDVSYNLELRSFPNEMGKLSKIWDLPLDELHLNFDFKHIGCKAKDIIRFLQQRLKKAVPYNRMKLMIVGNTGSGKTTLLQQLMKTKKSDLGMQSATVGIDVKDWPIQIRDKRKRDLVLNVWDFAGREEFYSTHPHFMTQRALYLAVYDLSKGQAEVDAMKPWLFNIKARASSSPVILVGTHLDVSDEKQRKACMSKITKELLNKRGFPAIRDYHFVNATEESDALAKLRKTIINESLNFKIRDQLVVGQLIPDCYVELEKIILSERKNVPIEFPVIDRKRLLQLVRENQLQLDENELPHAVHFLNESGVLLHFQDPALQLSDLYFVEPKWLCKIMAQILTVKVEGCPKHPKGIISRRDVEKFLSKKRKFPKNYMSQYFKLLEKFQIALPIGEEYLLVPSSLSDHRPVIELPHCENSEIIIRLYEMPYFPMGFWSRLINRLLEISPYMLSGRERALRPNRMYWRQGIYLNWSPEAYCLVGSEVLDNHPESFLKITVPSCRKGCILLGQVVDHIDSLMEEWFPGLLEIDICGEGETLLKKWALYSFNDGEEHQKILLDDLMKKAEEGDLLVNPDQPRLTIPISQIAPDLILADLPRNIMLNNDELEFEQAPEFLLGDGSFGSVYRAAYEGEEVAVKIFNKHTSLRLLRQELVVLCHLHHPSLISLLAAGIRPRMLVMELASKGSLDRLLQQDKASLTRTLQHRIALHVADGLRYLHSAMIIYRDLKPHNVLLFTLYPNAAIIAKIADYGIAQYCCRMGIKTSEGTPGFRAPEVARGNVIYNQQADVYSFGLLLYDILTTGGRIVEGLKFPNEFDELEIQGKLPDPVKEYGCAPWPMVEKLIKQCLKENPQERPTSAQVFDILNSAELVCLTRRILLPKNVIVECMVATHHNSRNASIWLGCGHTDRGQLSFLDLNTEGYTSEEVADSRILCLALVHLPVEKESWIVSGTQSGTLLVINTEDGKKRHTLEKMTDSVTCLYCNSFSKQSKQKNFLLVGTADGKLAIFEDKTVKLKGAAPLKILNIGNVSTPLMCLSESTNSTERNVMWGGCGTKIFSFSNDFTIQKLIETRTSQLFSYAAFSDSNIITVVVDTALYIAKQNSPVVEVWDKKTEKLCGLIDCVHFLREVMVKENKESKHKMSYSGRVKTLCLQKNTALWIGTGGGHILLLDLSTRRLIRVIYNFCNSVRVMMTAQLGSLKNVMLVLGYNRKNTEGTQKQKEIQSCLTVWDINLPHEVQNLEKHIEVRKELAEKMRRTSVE
The target of assay [11] is Bifunctional epoxide hydrolase 2 (Homo sapiens, UniProt P34913). The experiment in a line: Affinity On-target Cellular interaction (ELISA (inhibition of sEH in human Hep G2 cells)) EUB0000542a EPHX2. It counts as cell-based. Details: mode of action Inhibitor, recommended concentration 100 nM.
Chain of Bifunctional epoxide hydrolase 2 (P34913 whole entry): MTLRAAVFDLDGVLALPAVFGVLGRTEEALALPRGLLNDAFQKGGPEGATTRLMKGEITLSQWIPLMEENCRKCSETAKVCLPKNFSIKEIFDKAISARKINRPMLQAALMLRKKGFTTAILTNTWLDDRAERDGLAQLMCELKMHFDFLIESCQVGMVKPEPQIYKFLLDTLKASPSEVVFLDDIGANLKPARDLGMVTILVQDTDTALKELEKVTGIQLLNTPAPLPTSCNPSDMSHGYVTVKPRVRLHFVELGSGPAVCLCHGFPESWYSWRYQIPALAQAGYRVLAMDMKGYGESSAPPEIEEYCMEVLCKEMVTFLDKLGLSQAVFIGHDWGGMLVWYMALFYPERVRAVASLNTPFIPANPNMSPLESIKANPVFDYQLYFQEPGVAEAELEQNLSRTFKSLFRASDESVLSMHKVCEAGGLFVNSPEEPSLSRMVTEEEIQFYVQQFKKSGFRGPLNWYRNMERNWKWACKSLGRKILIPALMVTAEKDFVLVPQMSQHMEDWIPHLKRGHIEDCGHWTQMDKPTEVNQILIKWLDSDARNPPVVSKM
The target of assay [12] is Inhibitor of nuclear factor kappa-B kinase subunit epsilon (Homo sapiens, UniProt Q14164).
Chain of Inhibitor of nuclear factor kappa-B kinase subunit epsilon (Q14164 whole entry): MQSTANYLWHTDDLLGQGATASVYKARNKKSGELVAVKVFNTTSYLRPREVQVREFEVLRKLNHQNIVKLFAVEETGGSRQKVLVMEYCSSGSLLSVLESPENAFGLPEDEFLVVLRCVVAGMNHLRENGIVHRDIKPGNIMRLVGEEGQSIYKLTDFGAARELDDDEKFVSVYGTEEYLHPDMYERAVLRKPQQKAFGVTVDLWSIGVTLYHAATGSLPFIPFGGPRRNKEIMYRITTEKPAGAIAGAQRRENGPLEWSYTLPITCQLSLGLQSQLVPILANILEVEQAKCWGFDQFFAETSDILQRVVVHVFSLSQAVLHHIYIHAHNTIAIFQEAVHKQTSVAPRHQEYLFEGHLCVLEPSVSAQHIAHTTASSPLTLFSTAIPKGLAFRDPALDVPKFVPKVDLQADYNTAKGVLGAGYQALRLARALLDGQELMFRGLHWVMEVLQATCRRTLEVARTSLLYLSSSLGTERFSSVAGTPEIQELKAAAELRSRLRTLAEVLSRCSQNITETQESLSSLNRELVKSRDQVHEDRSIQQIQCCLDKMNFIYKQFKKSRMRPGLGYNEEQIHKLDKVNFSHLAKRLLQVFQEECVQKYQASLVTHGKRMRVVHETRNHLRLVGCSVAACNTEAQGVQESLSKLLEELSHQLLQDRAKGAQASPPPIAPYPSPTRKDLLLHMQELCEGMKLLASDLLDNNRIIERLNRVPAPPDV
Assay [13] concerns the target Serine/threonine-protein kinase TBK1 (Homo sapiens, UniProt Q9UHD2).
Assay [14] addresses G-protein coupled receptor 52 (Homo sapiens, UniProt Q9Y2T5).
Assay [15] concerns the target Tyrosine-protein kinase JAK3 (Homo sapiens, UniProt P52333). The experiment in a line: Affinity On-target Cellular interaction (NanoBRET assay (HEK293T cells)) EUB0000007b JAK3. Details: mode of action Negative control for FM-381, recommended concentration 100 nM.
Assay [16] has as its target T1, Leucine-rich repeat serine/threonine-protein kinase 2. The experiment in a line: Affinity On-target Cellular interaction (Cellular assay (LRRK2 phosphorylation)) EUB0000629a LRRK2. Details: mode of action Inhibitor, recommended concentration 100 nM.
Assay [17] concerns the target P2Y purinoceptor 14 (Homo sapiens) (UniProt Q15391). Particulars: Affinity On-target Cellular Source Knowledge https://pubs.acs.org/doi/10.1021/jm200400m,https://pubs.acs.org/doi/10.1021/ml300280g, https://www.sgc-ffm.uni-frankfurt.de/#!specificprobeoverview/MSD-M1PAM.
Assay [18] deals with Nucleosome-remodeling factor subunit BPTF (Homo sapiens, UniProt Q12830).

Structures are written as SMILES. A value given as a limit tells only on which side of the number the result lay.

Chain of G-protein coupled receptor 52 (Q9Y2T5 whole entry): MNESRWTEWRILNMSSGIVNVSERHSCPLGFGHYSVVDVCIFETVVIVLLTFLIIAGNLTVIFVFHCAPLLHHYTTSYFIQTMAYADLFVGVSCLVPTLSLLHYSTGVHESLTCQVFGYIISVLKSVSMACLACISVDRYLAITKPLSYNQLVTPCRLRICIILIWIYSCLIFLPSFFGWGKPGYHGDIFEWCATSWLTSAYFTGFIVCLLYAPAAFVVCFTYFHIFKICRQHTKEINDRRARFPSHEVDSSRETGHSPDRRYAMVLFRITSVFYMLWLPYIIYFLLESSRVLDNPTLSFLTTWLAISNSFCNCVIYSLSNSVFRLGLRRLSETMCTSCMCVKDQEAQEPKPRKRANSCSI

For `COc1ccc2c(c1)O[C@H](c1ccc(OC)c(OC)c1)C[C@@H]2NC(=O)C1(c2ccc3c(c2)OC(F)(F)O3)CC1` [A-1596584], the EC50 in [1] is > 3 µM.

The molecule `Cc1c(C(=O)O)cc(-c2ccc(C3CCNCC3)cc2)c2ccc(-c3ccc(C(F)(F)F)cc3)cc12` had a Ki in [2] of 8.61 µM. That is a single-digit micromolar value.

Turning to `CN1CCN(C(=O)C(C)(C)c2ccc(C(=O)Nc3cn4cc(-c5cc(C(C)(C)C)cc(C(C)(C)C)c5)ccc4n3)cc2)CC1` [T3-CLK-N], the IC50 in [3], in [4] and in assay [5] was > 10 µM throughout.

For `O=C([C@@H](Cc1cccc(C(F)(F)F)c1)NS(=O)(=O)c1cc(F)c2c(c1)CCNC2)N1CCCC1`, the EC50 in [6] is < 10 µM.

As for `Cc1noc([C@H]2C[C@@H](c3ccc(C(F)(F)F)cc3)CN(C(=O)N3CCS(=O)(=O)C3)C2)n1` [BAY-448], in assay [7], the IC50 was > 10 µM.

In the case of `CCCOc1ccc([C@@H]2[C@@H](C(=O)O)[C@H](c3ccc4c(c3)OCO4)CN2CC(=O)Nc2c(CC)cccc2CC)cc1` [A-1806262], the IC50 in [8] is > 10 µM.

With `CC(C)N(CCCNC(=O)Nc1ccc(C(C)(C)C)cc1)C[C@H]1O[C@@H](n2cc(Br)c3c(N)ncnc32)[C@H](O)[C@@H]1O`, in assay [9], half-maximal inhibition (IC50) required 0.0026 µM.

In [10], `C[C@@H]1CN(c2cc(-c3nn(C)c4ccc(OC5(C)CC5)cc34)ncn2)C[C@H](C)O1` [MLi-2-NC] showed an EC50 of 0.421 µM.

Take `CCOCCn1cc(C(=O)Nc2ccc(-n3nc(-c4cccnc4)cc3C(F)(F)F)cn2)ccc1=O` [BI 1935]: in [11], the IC50 was < 0.001 µM.

In the case of `CN(C)c1ncnc(-c2ccc3nc(Nc4cc(CN5CCN(C(=O)CC(F)(F)F)CC5)ccn4)[nH]c3c2)c1Cl` [BAY-440], the IC50 in assay [12] and in assay [13] was > 27 µM throughout.

As for `Cc1nc(Cc2cccc(C(F)(F)F)c2)sc1-c1ccc(C(N)=O)nc1` [TP-024n], in assay [14], the EC50 is > 1 µM.

Consider `CN(C)C(=O)/C(C#N)=C/c1ccc(-c2nc3cnc4c(ccn4C)c3n2C2CCCCC2)o1`, for which the concentration for half-maximal inhibition (IC50) in assay [15] is > 10 µM.

Regarding `CNc1nc(Nc2cnn([C@H]3CCN(C4COC4)C[C@@H]3F)c2Cl)ncc1C(F)(F)F`, 0.019 µM corresponded to half-maximal inhibition in assay [16] (IC50).

In the case of `O=C(O)c1cc(-c2ccc(C3CCNCC3)cc2)c2ccc(-c3ccc(C(F)(F)F)cc3)cc2c1`, in [17], the Potentiation inflection point was > 10 µM.

Molecule `Cc1c(Nc2ccc(S(=O)(=O)N3CCN(C)CC3)cc2F)nc2ccc(-c3cnn(C4CC4)c3)cn2c1=O` showed an IC50 in assay [18] of 0.016 µM.
